Experimental data from patent US20240317758A1 (Halia Therapeutics, Inc., priority 2021, published 2024).

What follows are molecules tested against T1, full-length recombinant human NEK7 (Homo sapiens, UniProt Q8TDX7) (assay: NEK7 enzymatic assay). Conditions: recombinant human NEK7, casein substrate, radiolabelled ATP.
T1 construct: full-length recombinant human NEK7; GST (N); purchased SignalChem NO9-10G; host or cells: Sf9 insect cells (baculovirus)
T1 sequence (Q8TDX7 whole entry): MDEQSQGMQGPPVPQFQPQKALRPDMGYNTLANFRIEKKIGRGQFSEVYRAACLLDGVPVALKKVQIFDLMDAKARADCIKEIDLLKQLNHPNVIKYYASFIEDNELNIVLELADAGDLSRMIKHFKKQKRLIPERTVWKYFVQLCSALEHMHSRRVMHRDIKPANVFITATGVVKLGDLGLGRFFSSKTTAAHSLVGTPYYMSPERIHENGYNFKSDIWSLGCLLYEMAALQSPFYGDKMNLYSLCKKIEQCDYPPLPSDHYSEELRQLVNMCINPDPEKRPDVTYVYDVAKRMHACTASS
Type: biochemical
Experimental: Casein substrate (from bovine milk, hydrolyzed and partially dephosphorylated mixture of α, β and κ caseins, obtained from Sigma Aldrich, catalogue #C4765, diluted in distilled water to a final concentration of 1 mg/mL) and full-length recombinant human NEK7 (expressed by baculovirus in Sf9 insect cells using a N-terminal GST tag, obtained from SignalChem, catalogue #NO9-10G, 0.1 μg/μL) were mixed in assay buffer (20 mM Hepes pH 7.5, 10 mM MgCl2, 1 mM EGTA, 0.02% Brij35, 0.02 mg/ml BSA, 0.1 mM Na3VO4, 2 mM DTT, 1% DMSO). Compounds of interest (serial 3-fold dilution in DMSO from 10 μM to 0.5 nM) or vehicle (1% DMSO) were dispensed into the kinase reaction mixture by Acoustic technology (Echo550; nanoliter range). After incubation at room temperature for 20 minutes, the kinase reaction was initiated by addition of [^33P]-ATP (specific activity 10 μCi/μl) and the mixture was incubated at room temperature for 2 hours. The reaction was then stopped by spotting the reaction mixture on strips of phosphocellulose P81 paper. Following washing, the radioactivity of the P81 paper was measured and kinase activity data were expressed as the percent remaining kinase activity in test samples compared to vehicle reactions. IC50 values and curve fits were obtained using Prism (GraphPad Software).
Casein substrate (from bovine milk, hydrolyzed and partially dephosphorylated mixture of α, β and κ caseins, obtained from Sigma Aldrich, catalogue #C4765, diluted in distilled water to a final concentration of 1 mg/mL, assay concentration 20 μM) and full-length recombinant human Nek7 (expressed by baculovirus in Sf9 insect cells using a N-terminal GST tag, obtained from SignalChem, catalogue #NO9-10G, 0.1 μg/μL, assay concentration 70 nM) were mixed in assay buffer (20 mM Hepes pH 7.5, 10 mM MgCl2, 1 mM EGTA, 0.02% Brij35, 0.02 mg/ml BSA, 0.1 mM […], 2 mM DTT, 1% DMSO). Compounds of interest (in DMSO, serial 3-fold dilution from 10 μM to 0.5 nM) or control (1% DMSO) were dispensed into the kinase reaction mixture by Acoustic technology (Echo550; nanoliter range). After incubation at room temperature for 20 minutes, the kinase reaction was initiated by addition of [^32P]-ATP (Specific activity 10 μCi/μl) and the mixture was incubated at room temperature for 2 hours. The reaction was then stopped by spotting the reaction mixture on strips of phosphocellulose P81 paper. Following washing, the radioactivity of the P81 paper was measured and kinase activity data were expressed as the percent remaining kinase activity in test samples compared to vehicle (dimethyl sulfoxide) reactions. IC50 values and curve fits were obtained using Prism (GraphPad Software).
CN1CCCN(Cc2ccc(NC(=O)Nc3ccc(-c4cn(C5CC5)c5ncnc(N)c45)cc3F)cc2C(F)(F)F)CC1 [Example I-44, 1-(4-(4-amino-7-cyclopropyl-7H-pyrrolo[2,3-d]pyrimidin-5-yl)-2-fluorophenyl)-3-(4-((4-methyl-1,4-diazepan-1-yl)methyl)-3-(trifluoromethyl)phenyl)urea] was tested, and the IC50 was < 100 nM. In the case of CCN1CCN(Cc2ccc(NC(=O)Nc3ccc(-c4cn(C5CC5)c5ncnc(N)c45)cc3Cl)cc2C(F)(F)F)CC1 [Example I-55, 1-(4-(4-amino-7-cyclopropyl-7H-pyrrolo[2,3-d]pyrimidin-5-yl)-2-chlorophenyl)-3-(4-((4-ethylpiperazin-1-yl)methyl)-3-(trifluoromethyl)phenyl)urea], the IC50 is reported as 100 to 500 nM. With CN1CC2CC1CN2Cc1ccc(NC(=O)Nc2ccc(-c3cn(C4CC4)c4ncnc(N)c34)cc2F)cc1C(F)(F)F (stereo not shown) [Example I-64, 1-(4-(4-amino-7-cyclopropyl-7H-pyrrolo[2,3-d]pyrimidin-5-yl)-2-fluorophenyl)-3-(4-((5-methyl-2,5-diazabicyclo[2.2.1]heptan-2-yl)methyl)-3-(trifluoromethyl)phenyl)urea] the IC50 was < 100 nM. With CN1CCN(Cc2ccc(NC(=O)Nc3ncc(-c4cn(C5CC5)c5ncnc(N)c45)cc3F)cc2C(F)(F)F)CC1 [Example I-67, 1-(5-(4-amino-7-cyclopropyl-7H-pyrrolo[2,3-d]pyrimidin-5-yl)-3-fluoropyridin-2-yl)-3-(4-((4-methylpiperazin-1-yl)methyl)-3-(trifluoromethyl)phenyl)urea] the IC50 was 100 to 500 nM. CN(C)C1CCN(Cc2ccc(NC(=O)Nc3ccc(-c4cn(C5CC5)c5ncnc(N)c45)cc3F)cc2C(F)(F)F)CC1 [Example I-69] was tested, and the IC50 was < 100 nM. Work on CC1CN(C)CCN1Cc1ccc(NC(=O)Nc2ccc(-c3cn(C4CC4)c4ncnc(N)c34)cc2F)cc1C(F)(F)F (stereo not shown) [Example I-70, 1-(4-(4-amino-7-cyclopropyl-7H-pyrrolo[2,3-d]pyrimidin-5-yl)-2-fluorophenyl)-3-(4-((2,4-dimethylpiperazin-1-yl)methyl)-3-(trifluoromethyl)phenyl)urea] yielded an IC50 of 100 to 500 nM. With CN1CCN(Cc2ccc(NC(=O)Nc3ccc(-c4cn(CCO)c5ncnc(N)c45)cc3F)cc2C(F)(F)F)CC1 [Example I-71, 1-(4-(4-amino-7-(2-hydroxyethyl)-7H-pyrrolo[2,3-d]pyrimidin-5-yl)-2-fluorophenyl)-3-(4-((4-methylpiperazin-1-yl)methyl)-3-(trifluoromethyl)phenyl)urea] the IC50 was < 100 nM. With CN1CCN(Cc2ccc(NC(=O)Nc3ccc(-c4cn(C5CC5)c5ncnc(N)c45)cc3F)cc2C(F)(F)F)CC12CC2 [Example I-73, 1-(4-(4-amino-7-cyclopropyl-7H-pyrrolo[2,3-d]pyrimidin-5-yl)-2-fluorophenyl)-3-(4-((4-methyl-4,7-diazaspiro[2.5]octan-7-yl)methyl)-3-(trifluoromethyl)phenyl)urea] the IC50 was 500 to 2000 nM. In the case of CNC1CCN(Cc2ccc(NC(=O)Nc3ccc(-c4cn(C5CC5)c5ncnc(N)c45)cc3F)cc2C(F)(F)F)CC1 [Example I-74, 1-(4-(4-amino-7-cyclopropyl-7H-pyrrolo[2,3-d]pyrimidin-5-yl)-2-fluorophenyl)-3-(4-((4-(methylamino)piperidin-1-yl)methyl)-3-(trifluoromethyl)phenyl)urea], the IC50 is reported as 100 to 500 nM. Nc1ncnc2c1c(-c1ccc(NC(=O)Nc3ccc(CN4CCC(F)(F)CC4)c(C(F)(F)F)c3)c(F)c1)cn2C1CC1 [Example I-85, 1-(4-(4-amino-7-cyclopropyl-7H-pyrrolo[2,3-d]pyrimidin-5-yl)-2-fluorophenyl)-3-(4-((4,4-difluoropiperidin-1-yl)methyl)-3-(trifluoromethyl)phenyl)urea] was tested, and the IC50 was > 2000 nM. With Nc1ncnc2c1c(-c1ccc(NC(=O)Nc3ccc(CN4CCN(C5COC5)CC4)c(C(F)(F)F)c3)c(F)c1)cn2C1CC1 [Example I-86, 1-(4-(4-amino-7-cyclopropyl-7H-pyrrolo[2,3-d]pyrimidin-5-yl)-2-fluorophenyl)-3-(4-((4-(oxetan-3-yl)piperazin-1-yl)methyl)-3-(trifluoromethyl)phenyl)urea] the IC50 was 100 to 500 nM. In the case of CCN1CCC(Oc2ccc(NC(=O)Nc3ccc(-c4cn(C5CC5)c5ncnc(N)c45)cc3F)cc2C(F)(F)F)CC1 [Example I-88, 1-(4-(4-amino-7-cyclopropyl-7H-pyrrolo[2,3-d]pyrimidin-5-yl)-2-fluorophenyl)-3-(4-((1-ethylpiperidin-4-yl)oxy)-3-(trifluoromethyl)phenyl)urea], the IC50 is reported as < 100 nM. For CN1CCN(Cc2cc(NC(=O)Nc3ccc(-c4cn(C5CC5)c5ncnc(N)c45)cc3F)cc(C(F)(F)F)c2)CC1 [Example I-93, 1-(4-(4-amino-7-cyclopropyl-7H-pyrrolo[2,3-d]pyrimidin-5-yl)-2-fluorophenyl)-3-(3-((4-methylpiperazin-1-yl)methyl)-5-(trifluoromethyl)phenyl)urea], the IC50 was < 100 nM. Nc1ncnc2c1c(-c1ccc(NC(=O)Nc3ccc(CN4CCCCC4)c(C(F)(F)F)c3)c(F)c1)cn2C1CC1 [Example I-95, 1-(4-(4-amino-7-cyclopropyl-7H-pyrrolo[2,3-d]pyrimidin-5-yl)-2-fluorophenyl)-3-(4-(piperidin-1-ylmethyl)-3-(trifluoromethyl)phenyl)urea] showed an IC50 of 500 to 2000 nM. Nc1ncnc2c1c(-c1ccc(NC(=O)Nc3ccc(CN4CCC(O)CC4)c(C(F)(F)F)c3)c(F)c1)cn2C1CC1 [Example I-96, 1-(4-(4-amino-7-cyclopropyl-7H-pyrrolo[2,3-d]pyrimidin-5-yl)-2-fluorophenyl)-3-(4-((4-hydroxypiperidin-1-yl)methyl)-3-(trifluoromethyl)phenyl)urea] gave an IC50 of 100 to 500 nM. For Nc1ncnc2c1c(-c1ccc(NC(=O)Nc3ccc(CN4CCN(S(=O)(=O)C5CC5)CC4)c(C(F)(F)F)c3)c(F)c1)cn2C1CC1 [Example I-97, 1-(4-(4-amino-7-cyclopropyl-7H-pyrrolo[2,3-d]pyrimidin-5-yl)-2-fluorophenyl)-3-(4-((4-(cyclopropylsulfonyl)piperazin-1-yl)methyl)-3-(trifluoromethyl)phenyl)urea], the IC50 was 500 to 2000 nM. For CN1CCN(Cc2ccc(NC(=O)Nc3ccc(-c4nn(CCCCCO)c5ncnc(N)c45)cc3F)cc2C(F)(F)F)CC1 [Example I-103, 1-(4-(4-amino-1-(5-hydroxypentyl)-1H-pyrazolo[3,4-d]pyrimidin-3-yl)-2-fluorophenyl)-3-(4-((4-methylpiperazin-1-yl)methyl)-3-(trifluoromethyl)phenyl)urea], the IC50 was < 100 nM. With CN1CCN(Cc2ccc(NC(=O)Nc3ccc(-c4cn(C5CN(C)C5)c5ncnc(N)c45)cc3F)cc2C(F)(F)F)CC1 [Example I-104, 1-(4-(4-amino-7-(1-methylazetidin-3-yl)-7H-pyrrolo[2,3-d]pyrimidin-5-yl)-2-fluorophenyl)-3-(4-((4-methylpiperazin-1-yl)methyl)-3-(trifluoromethyl)phenyl)urea] the IC50 was < 100 nM. With CC(C)n1cc(-c2ccc(NC(=O)Nc3ccc(CN4CCN(C)CC4)c(C(F)(F)F)c3)c(F)c2)c2c(N)ncnc21 [Example I-105, 1-(4-(4-amino-7-isopropyl-7H-pyrrolo[2,3-d]pyrimidin-5-yl)-2-fluorophenyl)-3-(4-((4-methylpiperazin-1-yl)methyl)-3-(trifluoromethyl)phenyl)urea] the IC50 was < 100 nM.
